Test results as given in patent US10167279B2 (NOVARTIS AG, priority 2014, dated 2019).

What was measured:
b-Raf (V600E) = b-Raf (V600E) (Homo sapiens (Human), UniProt P15056, V600E); assay: In vitro Raf activity determination (Alpha Screen, phospho-MEK), b-Raf (V600E); assay type: biochemical; conditions: ATP 10 μM, 60 min pre-incubation, 3 hours reaction
From the text: The activity of a compound according to the present invention can be assessed by well-known in vitro & in vivo methods. Raf inhibition data provided herein was obtained using the following procedures.
Sf9 cells co-expressing both proteins were lysed and subjected to immobilized nickel chromatography and eluted with Imidazole. A second column (StrepII binding column) was used and eluted with desthiobiotin. Protein Tags were removed using Prescission enzyme and the protein was further purified using a flowthrough step to remove tags.
Full length MEK1 with an inactivating K97R ATP binding site mutation is utilized as a RAF substrate. The MEK1 cDNA was subcloned with an N-terminal (his)6 tag into a vector for E. Coli expression. The MEK1 substrate was purified from E. Coli lysate by nickel affinity chromatography followed by anion exchange. The final MEK1 preparation was biotinylated (Pierce EZ-Link Sulfo-NHS-LC-Biotin) and concentrated.
The plate was incubated for 60 minutes at room temperature. […] The additions were carried out under dark conditions to protect the detection beads from light. A lid was placed on top of the plate and incubated for 1 hour at room temperature, after which the luminescence was read on a PerkinElmer Envision instrument.

C-Raf FL = C-Raf FL (Homo sapiens (Human), UniProt P04049, Y340E/Y341E); assay: In vitro Raf activity determination (Alpha Screen, phospho-MEK), C-Raf FL (full length, Y340E/Y341E); assay type: biochemical; conditions: ATP 1 μM; 60 min pre-incubation; 1 hour reaction; column head does not say FL or TR
C-Raf FL, sequence (P04049 whole entry Y340E/Y341E): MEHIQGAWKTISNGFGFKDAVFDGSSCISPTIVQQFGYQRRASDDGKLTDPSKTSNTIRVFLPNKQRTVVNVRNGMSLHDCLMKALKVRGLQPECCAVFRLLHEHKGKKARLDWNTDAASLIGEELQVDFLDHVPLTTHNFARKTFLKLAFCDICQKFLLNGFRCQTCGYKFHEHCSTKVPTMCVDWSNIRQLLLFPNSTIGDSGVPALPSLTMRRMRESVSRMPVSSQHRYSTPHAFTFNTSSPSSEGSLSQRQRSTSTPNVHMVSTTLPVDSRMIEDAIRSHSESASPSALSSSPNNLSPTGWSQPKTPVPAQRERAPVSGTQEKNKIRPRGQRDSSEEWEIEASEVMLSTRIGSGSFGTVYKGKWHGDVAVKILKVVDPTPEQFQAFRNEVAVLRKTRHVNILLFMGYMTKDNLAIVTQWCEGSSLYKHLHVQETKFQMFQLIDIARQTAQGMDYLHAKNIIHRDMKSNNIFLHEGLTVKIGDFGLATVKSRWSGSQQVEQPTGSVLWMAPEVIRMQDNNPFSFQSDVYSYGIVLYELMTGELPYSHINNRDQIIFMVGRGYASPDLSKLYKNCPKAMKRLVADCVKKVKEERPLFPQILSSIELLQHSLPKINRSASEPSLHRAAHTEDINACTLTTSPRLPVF
C-Raf FL, sequence (P63104 whole entry partner): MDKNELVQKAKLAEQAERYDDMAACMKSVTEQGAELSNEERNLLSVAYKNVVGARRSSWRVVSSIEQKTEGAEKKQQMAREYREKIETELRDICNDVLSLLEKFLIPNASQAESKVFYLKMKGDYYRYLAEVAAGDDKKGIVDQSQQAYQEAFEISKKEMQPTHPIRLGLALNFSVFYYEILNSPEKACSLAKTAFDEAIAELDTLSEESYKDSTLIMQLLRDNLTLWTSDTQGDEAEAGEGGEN
Summary of the method: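 Sf9-expressed C-Raf incubated with biotinylated kinase-dead MEK1 (K97R) in 50 mM Tris pH 7.5, 15 mM MgCl2, 0.01% BSA, 1 mM DTT with compound, 60 min at room temperature. Phospho-MEK detected by anti-p-MEK AlphaScreen luminescence; IC50 by non-linear regression.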

b-Raf (V600E), sequence (P15056 whole entry V600E): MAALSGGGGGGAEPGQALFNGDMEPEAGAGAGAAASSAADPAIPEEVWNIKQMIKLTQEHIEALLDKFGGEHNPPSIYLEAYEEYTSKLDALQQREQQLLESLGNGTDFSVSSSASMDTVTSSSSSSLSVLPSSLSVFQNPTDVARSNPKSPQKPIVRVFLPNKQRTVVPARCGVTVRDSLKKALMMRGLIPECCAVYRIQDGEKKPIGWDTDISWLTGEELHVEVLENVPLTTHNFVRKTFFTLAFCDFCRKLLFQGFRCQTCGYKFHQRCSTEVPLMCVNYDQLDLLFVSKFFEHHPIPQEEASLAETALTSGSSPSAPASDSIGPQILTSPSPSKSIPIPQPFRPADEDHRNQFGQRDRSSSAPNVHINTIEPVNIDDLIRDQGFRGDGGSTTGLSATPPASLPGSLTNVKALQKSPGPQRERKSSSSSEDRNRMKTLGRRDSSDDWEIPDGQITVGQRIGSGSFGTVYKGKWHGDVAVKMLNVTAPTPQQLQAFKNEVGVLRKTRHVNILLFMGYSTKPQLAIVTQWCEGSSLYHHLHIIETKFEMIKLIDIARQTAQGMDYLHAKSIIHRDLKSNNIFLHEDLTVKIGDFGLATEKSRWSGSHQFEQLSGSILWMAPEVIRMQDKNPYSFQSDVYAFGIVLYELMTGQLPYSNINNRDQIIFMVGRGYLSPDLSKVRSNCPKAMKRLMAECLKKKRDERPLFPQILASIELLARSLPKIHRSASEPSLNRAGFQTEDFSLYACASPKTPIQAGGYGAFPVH

| SMILES | IC50 (b-Raf (V600E)) [nM] | IC50 (C-Raf FL) [nM] |
| --- | --- | --- |
| CCOc1ncc(-c2cc(NC(=O)c3cnnc(C(C)(C)C#N)c3)cnc2C)cc1C1(C)COC1 [Example 65, 6-(2-cyanopropan-2-yl)-N-(6′-ethoxy-2-methyl-5′-(3-methyloxetan-3-yl)-[3,3′-bipyridin]-5-yl)pyridazine-4-carboxamide] | 7.13 | 1.13 |
| CCOc1nnc(-c2cc(NC(=O)c3ccnc(C(C)(C)F)c3)cnc2C)cc1C1(C)COC1 [Example 128, N-(5-(6-ethoxy-5-(3-methyloxetan-3-yl)pyridazin-3-yl)-6-methylpyridin-3-yl)-2-(2-fluoropropan-2-yl)isonicotinamide] | 2.15 | 0.633 |
| Cc1ccc(NC(=O)c2ccnc(C(C)(C)F)c2)cc1-c1cc(C2COC2)c(=O)n(C)c1 [Example 110, 2-(2-fluoropropan-2-yl)-N-(4-methyl-3-(1-methyl-5-(oxetan-3-yl)-6-oxo-1,6-dihydropyridin-3-yl)phenyl)isonicotinamide] | 9.98 | 1.52 |
| COc1ncc(-c2cc(NC(=O)c3ccnc(C(F)(F)F)c3)cnc2C)cc1C1(C#N)COC1 [Example 115, N-(5′-(3-cyanooxetan-3-yl)-6′-methoxy-2-methyl-[3,3′-bipyridin]-5-yl)-2-(trifluoromethyl)isonicotin-amide] | 7.01 | 1.06 |
| COc1ncc(-c2cc(NC(=O)c3ccnc(C(C)(F)F)c3)cnc2C)cc1C1(O)COC1 [Example 77, 2-(1,1-difluoroethyl)-N-(5′-(3-hydroxyoxetan-3-yl)-6′-methoxy-2-methyl-[3,3′-bipyridin]-5-yl)isonicotinamide] | 24 | 3.57 |
| Cc1ccc(NC(=O)c2ccnc(C(C)(C)O)c2)cc1-c1cc(C2(C)COC2)c2nccn2n1 [Example 62, 2-(2-hydroxypropan-2-yl)-N-(4-methyl-3-(8-(3-methyloxetan-3-yl)imidazo[1,2-b]pyridazin-6-yl)phenyl)isonicotinamide] | 3.77 | 0.707 |
| COc1ncc(-c2cc(NC(=O)c3cc(C(C)(C)C#N)ccn3)cnc2C)cc1C1(F)COC1 [Example 86, 4-(2-cyanopropan-2-yl)-N-(5′-(3-fluorooxetan-3-yl)-6′-methoxy-2-methyl-[3,3′-bipyridin]-5-yl)picolinamide] | 14.7 | 2.33 |
| COc1ncc(-c2cc(NC(=O)c3cc(C(F)(F)F)ccn3)cnc2C)cc1C1(O)COC1 [Example 78, N-(5′-(3-hydroxyoxetan-3-yl)-6′-methoxy-2-methyl-[3,3′-bipyridin]-5-yl)-4-(trifluoromethyl)picolin-amide] | 23.5 | 3.23 |
| COc1ncc(-c2cc(NC(=O)c3cccc(C(F)(F)F)c3)cnc2C)cc1C1(O)COC1 [Example 97, N-(5′-(3-hydroxyoxetan-3-yl)-6′-methoxy-2-methyl-[3,3′-bipyridin]-5-yl)-3-(trifluoromethyl)benzamide] | 10.4 | 1.41 |
| COc1ncc(-c2cc(NC(=O)c3cc(C(C)(C)N)cc(C(F)(F)F)c3)cnc2C)cc1C1(C#N)COC1 [Example 114, 3-(2-aminopropan-2-yl)-N-(5′-(3-cyanooxetan-3-yl)-6′-methoxy-2-methyl-[3,3′-bipyridin]-5-yl)-5-(trifluoromethyl)benzamide] | 17.5 | 3.26 |
| COc1ncc(-c2cc(NC(=O)c3cc(C(C)(F)F)ccn3)cnc2C)cc1C1(O)COC1 [Example 91] | 13 |  |
| COc1ncc(-c2cc(NC(=O)c3cc(C(C)(F)F)ccn3)ccc2C)cc1C1(F)COC1 [Example 89, 4-(1,1-difluoroethyl)-N-(3-(5-(3-fluorooxetan-3-yl)-6-methoxypyridin-3-yl)-4-methylphenyl)picolinamide] | 1.19 |  |
| Cc1ncc(NC(=O)c2ccc(CN)c(C(F)(F)F)c2)cc1-c1cc(C2COC2)c2nccn2n1 [Example 10, 4-(aminomethyl)-N-(6-methyl-5-(8-(oxetan-3-yl)imidazo[1,2-b]pyridazin-6-yl)pyridin-3-yl)-3-(trifluoromethyl)benzamide] |  | 2 |
| Cc1ccc(NC(=O)c2cc(C(F)(F)F)c[nH]c2=O)cc1-c1cc(OCCO)nc(C2CCOCC2)c1 [Example 252, N-(3-(2-(2-hydroxyethoxy)-6-(terahydro-2H-pyran-4-yl)pyridin-4-yl)-4-methylphenyl)-2-oxo-5-(trifluoromethyl)-1,2-dihydropyridine-3-carboxamide] |  | 4 |
| Cc1ncc(NC(=O)c2ccnc(C(C)(C)F)c2)cc1-c1cccc(C2COC2)c1 [Example 1, 2-(2-fluoropropan-2-yl)-N-(6-methyl-5-(3-(oxetan-3-yl)phenyl)pyridin-3-yl)isonicotinamide] |  | 1 |

Further compounds by falling IC50 (C-Raf FL), results first:

| IC50 (b-Raf (V600E)) [nM] | IC50 (C-Raf FL) [nM] | SMILES |
| --- | --- | --- |
| 3.92 | 0.514 | COc1ncc(-c2cc(NC(=O)c3cc(C(C)(C)F)ccn3)ccc2C)cc1C1(O)COC1 [Example 95, 4-(2-fluoropropan-2-yl)-N-(3-(5-(3-hydroxyoxetan-3-yl)-6-methoxypyridin-3-yl)-4-methylphenyl)picolinamide] |
|  | 0.4 | CCOc1ncc(-c2cc(NC(=O)c3ccnc(C(C)(C)C#N)c3)cnc2C)cc1C1CCOCC1 [Example 164, 2-(2-cyanopropan-2-yl)-N-(6′-ethoxy-2-methyl-5′-(tetrahydro-2H-pyran-4-yl)-[3,3′-bipyridin]-5-yl)isonicotinamide] |
| 3.61 | 0.386 | COc1ncc(-c2cc(NC(=O)c3cc(C(C)(F)F)ccn3)cnc2C)cc1C1(F)COC1 [Example 90, 4-(1,1-difluoroethyl)-N-(5′-(3-fluorooxetan-3-yl)-6′-methoxy-2-methyl-[3,3′-bipyridin]-5-yl)picolinamide] |
| 2.07 | 0.36 | COc1ncc(-c2cc(NC(=O)c3ccnc(C(C)(F)F)c3)ccc2C)cc1C1(O)COC1 [Example 74, 2-(1,1-difluoroethyl)-N-(3-(5-(3-hydroxyoxetan-3-yl)-6-methoxypyridin-3-yl)-4-methylphenyl)isonicotin-amide] |
| 1.85 | 0.354 | Cc1ncc(NC(=O)c2cccc(C(F)(F)F)c2)cc1-c1cnc(OCCO)c(C2(F)COC2)c1 [Example 37, N-(5′-(3-fluorooxetan-3-yl)-6′-(2-hydroxyethoxy)-2-methyl-[3,3′-bipyridin]-5-yl)-3-(trifluoromethyl)benzamide] |
| 0.966 | 0.297 | Cc1ccc(NC(=O)c2ccnc(C(F)(F)F)c2)cc1-c1cnc(OC2CCOCC2)c(C2(O)COC2)c1 [Example 35, N-(3-(5-(3-hydroxyoxetan-3-yl)-6-((tetrahydro-2H-pyran-4-yl)oxy)pyridin-3-yl)-4-methylphenyl)-2-(trifluoromethyl)isonicotin-amide] |
|  | 0.245 | Cc1ccc(NC(=O)c2ccnc(C(C)(C)F)c2)cc1-c1cnc(OCCO)c(C2(F)COC2)c1 [Example 41, N-(3-(5-(3-fluorooxetan-3-yl)-6-(2-hydroxyethoxy)pyridin-3-yl)-4-methylphenyl)-2-(2-fluoropropan-2-yl)isonicotinamide] |
|  | 0.2 | Cc1ccc(NC(=O)c2cnc(C(F)(F)F)cn2)cc1-c1cc(OC[C@H](O)CO)nc(C2CCOCC2)c1 [Example 277, (R)-N-(3-(2-(2,3-dihydroxypropoxy)-6-(tetrahydro-2H-pyran-4-yl)pyridin-4-yl)-4-methylphenyl)-5-(trifluoromethyl) pyrazine-2-carboxamide] |
| 0.808 | 0.176 | Cc1ccc(NC(=O)c2cccc(C(F)(F)F)c2)cc1-c1cnc(OC2CCOCC2)c(C2(O)COC2)c1 [Example 119, N-(3-(5-(3-hydroxyoxetan-3-yl)-6-((tetrahydro-2H-pyran-4-yl)oxy)pyridin-3-yl)-4-methylphenyl)-3-(trifluoromethyl)benzamide] |
| 0.446 | 0.157 | CCOc1ncc(-c2cc(NC(=O)c3ccnc(C(C)(C)C#N)c3)ccc2C)cc1C1(CF)COC1 [Example 31, 2-(2-cyanopropan-2-yl)-N-(3-(6-ethoxy-5-(3-(fluoromethyl)oxetan-3-yl)pyridin-3-yl)-4-methylphenyl)isonicotin-amide] |
| 0.87 | 0.154 | Cc1ccc(NC(=O)c2cccc(C(F)(F)F)c2)cc1-c1cccc(C2(C)COC2)c1 [Example 25, N-(6-methyl-3′-(3-methyloxetan-3-yl)-[1,1′-biphenyl]-3-yl)-3-(trifluoromethyl)benz-amide] |
|  | 0.06 | Cc1ccc(NC(=O)c2cc(C(F)(F)F)ncn2)cc1-c1cc(OC[C@H](O)CO)nc(C2CCOCC2)c1 [Example 276, (R)-N-(3-(2-(2,3-dihydroxypropoxy)-6-(tetrahydro-2H-pyran-4-yl)pyridin-4-yl)-4-methylphenyl)-6-(trifluoromethyl) pyrimidine-4-carboxamide] |
|  | 0.05 | Cc1ccc(NC(=O)c2cc(Cl)ccn2)cc1-c1cc(OC[C@H](O)CO)nc(C2CCOCC2)c1 [Example 278, (R)-4-chloro-N-(3-(2-(2,3-dihydroxypropoxy)-6-(tetrahydro-2H-pyran-4-yl)pyridin-4-yl)-4-methylphenyl) picolinamide] |
